± gives the expanded uncertainty stated by the source.
Compound `F/C=C/C(F)(F)F` [trans-1,3,3,3-tetrafluoropropene] has a mass density (323.14 K, 8751 kPa, Liquid, Vibrating tube method) of 1126.4 ± 1.6 kg/m3, a mass density (323.14 K, 9772 kPa, Liquid, Vibrating tube method) of 1131.9 ± 1.6 kg/m3 and a mass density (323.14 K, 12808 kPa, Liquid, Vibrating tube method) of 1147.2 ± 1.6 kg/m3. It also gave a mass density (323.14 K, 13808 kPa, Liquid, Vibrating tube method) of 1151.8 ± 1.6 kg/m3, a mass density (323.14 K, 14826 kPa, Liquid, Vibrating tube method) of 1156.4 ± 1.6 kg/m3 and a mass density (323.14 K, 15836 kPa, Liquid, Vibrating tube method) of 1160.8 ± 1.6 kg/m3. It also gave a mass density (323.14 K, 16839 kPa, Liquid, Vibrating tube method) of 1165 ± 1.6 kg/m3, a mass density (323.14 K, 17853 kPa, Liquid, Vibrating tube method) of 1169.1 ± 1.6 kg/m3 and a mass density (323.14 K, 18870 kPa, Liquid, Vibrating tube method) of 1173.1 ± 1.6 kg/m3. It also gave a mass density (323.14 K, 19877 kPa, Liquid, Vibrating tube method) of 1177 ± 1.6 kg/m3, a mass density (323.14 K, 20888 kPa, Liquid, Vibrating tube method) of 1180.8 ± 1.6 kg/m3 and a mass density (323.14 K, 25937 kPa, Liquid, Vibrating tube method) of 1198.3 ± 1.7 kg/m3. For the same compound, the mass density (323.14 K, 26941 kPa, Liquid, Vibrating tube method) was 1201.5 ± 1.7 kg/m3, the mass density (323.14 K, 29967 kPa, Liquid, Vibrating tube method) was 1210.9 ± 1.7 kg/m3 and the mass density (323.15 K, 10784 kPa, Liquid, Vibrating tube method) was 1137.3 ± 1.6 kg/m3. The mass density (323.15 K, 11798 kPa, Liquid, Vibrating tube method) was 1142.3 ± 1.6 kg/m3, the mass density (323.15 K, 21901 kPa, Liquid, Vibrating tube method) was 1184.5 ± 1.6 kg/m3 and the mass density (323.15 K, 22914 kPa, Liquid, Vibrating tube method) was 1188 ± 1.6 kg/m3. The mass density (323.15 K, 23918 kPa, Liquid, Vibrating tube method) was 1191.5 ± 1.6 kg/m3, the mass density (323.15 K, 24922 kPa, Liquid, Vibrating tube method) was 1194.9 ± 1.7 kg/m3 and the mass density (323.15 K, 27947 kPa, Liquid, Vibrating tube method) was 1204.7 ± 1.7 kg/m3. The mass density (323.15 K, 28950 kPa, Liquid, Vibrating tube method) was 1207.8 ± 1.7 kg/m3, the mass density (323.15 K, 30984 kPa, Liquid, Vibrating tube method) was 1213.9 ± 1.7 kg/m3 and the mass density (323.15 K, 31990 kPa, Liquid, Vibrating tube method) was 1216.9 ± 1.7 kg/m3. It also gave a mass density (323.15 K, 33002 kPa, Liquid, Vibrating tube method) of 1219.7 ± 1.7 kg/m3, a mass density (323.15 K, 34015 kPa, Liquid, Vibrating tube method) of 1222.6 ± 1.7 kg/m3 and a mass density (324.12 K, 770.9 kPa, Gas, isochoric method) of 38.462 ± 0.13 kg/m3. For the same compound, the mass density (324.12 K, 771 kPa, Gas, isochoric method) was 38.462 ± 0.13 kg/m3, the mass density (325.11 K, 605.5 kPa, Gas, isochoric method) was 28.571 ± 0.11 kg/m3 and the mass density (333.07 K, 79.2 kPa, Gas, isochoric method) was 3.311 ± 0.086 kg/m3. For the same compound, the mass density (333.07 K, 288 kPa, Gas, isochoric method) was 12.346 ± 0.095 kg/m3, the mass density (333.07 K, 488.2 kPa, Gas, isochoric method) was 21.739 ± 0.097 kg/m3 and the mass density (333.08 K, 180.4 kPa, Gas, isochoric method) was 7.634 ± 0.087 kg/m3. For the same compound, the mass density (333.09 K, 428.5 kPa, Gas, isochoric method) was 19.231 ± 0.095 kg/m3, the mass density (333.09 K, 624.8 kPa, Gas, isochoric method) was 28.571 ± 0.11 kg/m3 and the mass density (333.09 K, 685.9 kPa, Gas, isochoric method) was 32.258 ± 0.11 kg/m3. The mass density (333.09 K, 801.3 kPa, Gas, isochoric method) was 38.462 ± 0.12 kg/m3, the mass density (333.09 K, 801.4 kPa, Gas, isochoric method) was 38.462 ± 0.12 kg/m3 and the mass density (333.09 K, 875.5 kPa, Gas, isochoric method) was 43.478 ± 0.14 kg/m3. It also gave a mass density (333.1 K, 875.5 kPa, Gas, isochoric method) of 43.478 ± 0.14 kg/m3, a mass density (333.15 K, 10813 kPa, Liquid, Vibrating tube method) of 1108.1 ± 1.6 kg/m3 and a mass density (333.15 K, 15858 kPa, Liquid, Vibrating tube method) of 1134.8 ± 1.6 kg/m3. It also gave a mass density (333.15 K, 17873 kPa, Liquid, Vibrating tube method) of 1144.2 ± 1.6 kg/m3, a mass density (333.15 K, 18876 kPa, Liquid, Vibrating tube method) of 1148.5 ± 1.6 kg/m3 and a mass density (333.15 K, 19891 kPa, Liquid, Vibrating tube method) of 1152.9 ± 1.6 kg/m3. The mass density (333.15 K, 20898 kPa, Liquid, Vibrating tube method) was 1157 ± 1.6 kg/m3, the mass density (333.15 K, 21900 kPa, Liquid, Vibrating tube method) was 1161 ± 1.6 kg/m3 and the mass density (333.15 K, 22913 kPa, Liquid, Vibrating tube method) was 1165 ± 1.6 kg/m3. It also gave a mass density (333.15 K, 23923 kPa, Liquid, Vibrating tube method) of 1168.8 ± 1.6 kg/m3, a mass density (333.15 K, 24932 kPa, Liquid, Vibrating tube method) of 1172.5 ± 1.6 kg/m3 and a mass density (333.15 K, 25940 kPa, Liquid, Vibrating tube method) of 1176.1 ± 1.6 kg/m3. The mass density (333.15 K, 26944 kPa, Liquid, Vibrating tube method) was 1179.7 ± 1.6 kg/m3, the mass density (333.15 K, 27958 kPa, Liquid, Vibrating tube method) was 1183 ± 1.7 kg/m3 and the mass density (333.15 K, 28967 kPa, Liquid, Vibrating tube method) was 1186.4 ± 1.7 kg/m3. For the same compound, the mass density (333.15 K, 29982 kPa, Liquid, Vibrating tube method) was 1189.8 ± 1.7 kg/m3, the mass density (333.15 K, 30988 kPa, Liquid, Vibrating tube method) was 1193 ± 1.7 kg/m3 and the mass density (333.15 K, 31995 kPa, Liquid, Vibrating tube method) was 1196.1 ± 1.7 kg/m3. It also gave a mass density (333.15 K, 33006 kPa, Liquid, Vibrating tube method) of 1199.3 ± 1.7 kg/m3, a mass density (333.15 K, 34013 kPa, Liquid, Vibrating tube method) of 1202.3 ± 1.7 kg/m3 and a mass density (333.16 K, 1380 kPa, Liquid, Vibrating tube method) of 1031.7 ± 1.7 kg/m3. It also gave a mass density (333.16 K, 1683 kPa, Liquid, Vibrating tube method) of 1035.2 ± 1.7 kg/m3, a mass density (333.16 K, 2698 kPa, Liquid, Vibrating tube method) of 1046.3 ± 1.7 kg/m3 and a mass density (333.16 K, 3721 kPa, Liquid, Vibrating tube method) of 1056.4 ± 1.7 kg/m3. For the same compound, the mass density (333.16 K, 4755 kPa, Liquid, Vibrating tube method) was 1065.6 ± 1.6 kg/m3, the mass density (333.16 K, 5766 kPa, Liquid, Vibrating tube method) was 1073.9 ± 1.6 kg/m3 and the mass density (333.16 K, 6767 kPa, Liquid, Vibrating tube method) was 1081.5 ± 1.6 kg/m3. The mass density (333.16 K, 7784 kPa, Liquid, Vibrating tube method) was 1088.8 ± 1.6 kg/m3, the mass density (333.16 K, 8801 kPa, Liquid, Vibrating tube method) was 1095.7 ± 1.6 kg/m3 and the mass density (333.16 K, 9801 kPa, Liquid, Vibrating tube method) was 1102 ± 1.6 kg/m3. For the same compound, the mass density (333.16 K, 11831 kPa, Liquid, Vibrating tube method) was 1114 ± 1.6 kg/m3, the mass density (333.16 K, 12847 kPa, Liquid, Vibrating tube method) was 1119.5 ± 1.6 kg/m3 and the mass density (333.16 K, 13849 kPa, Liquid, Vibrating tube method) was 1124.8 ± 1.6 kg/m3. It also gave a mass density (333.16 K, 14855 kPa, Liquid, Vibrating tube method) of 1129.9 ± 1.6 kg/m3, a mass density (333.16 K, 16870 kPa, Liquid, Vibrating tube method) of 1139.6 ± 1.6 kg/m3 and a mass density (343.03 K, 81.6 kPa, Gas, isochoric method) of 3.3 ± 0.084 kg/m3. The mass density (343.03 K, 297.5 kPa, Gas, isochoric method) was 12.346 ± 0.091 kg/m3, the mass density (343.04 K, 81.7 kPa, Gas, isochoric method) was 3.3 ± 0.084 kg/m3 and the mass density (343.04 K, 186.1 kPa, Gas, isochoric method) was 7.634 ± 0.085 kg/m3. For the same compound, the mass density (343.04 K, 505.6 kPa, Gas, isochoric method) was 21.739 ± 0.093 kg/m3, the mass density (343.04 K, 648.5 kPa, Gas, isochoric method) was 28.571 ± 0.1 kg/m3 and the mass density (343.05 K, 443.5 kPa, Gas, isochoric method) was 19.231 ± 0.092 kg/m3. The mass density (343.06 K, 713 kPa, Gas, isochoric method) was 32.258 ± 0.11 kg/m3, the mass density (343.06 K, 713.1 kPa, Gas, isochoric method) was 32.258 ± 0.11 kg/m3 and the mass density (343.06 K, 913.4 kPa, Gas, isochoric method) was 43.478 ± 0.13 kg/m3. It also gave a mass density (343.06 K, 913.5 kPa, Gas, isochoric method) of 43.478 ± 0.13 kg/m3, a mass density (343.15 K, 834.9 kPa, Gas, isochoric method) of 38.462 ± 0.11 kg/m3 and a mass density (343.15 K, 835 kPa, Gas, isochoric method) of 38.462 ± 0.11 kg/m3. For the same compound, the mass density (343.15 K, 1625 kPa, Liquid, Vibrating tube method) was 984.2 ± 1.7 kg/m3, the mass density (343.15 K, 2607 kPa, Liquid, Vibrating tube method) was 999.1 ± 1.7 kg/m3 and the mass density (343.15 K, 3648 kPa, Liquid, Vibrating tube method) was 1012.8 ± 1.7 kg/m3. For the same compound, the mass density (343.15 K, 4690 kPa, Liquid, Vibrating tube method) was 1024.7 ± 1.7 kg/m3, the mass density (343.15 K, 5696 kPa, Liquid, Vibrating tube method) was 1035.1 ± 1.7 kg/m3 and the mass density (343.15 K, 6697 kPa, Liquid, Vibrating tube method) was 1044.5 ± 1.6 kg/m3. The mass density (343.15 K, 7717 kPa, Liquid, Vibrating tube method) was 1053.2 ± 1.6 kg/m3 and the mass density (343.15 K, 8731 kPa, Liquid, Vibrating tube method) was 1061.4 ± 1.6 kg/m3.

Reference: the NIST ThermoML archive (doi:10.1021/je300945r)
